According to patent US20230119360A1, “PHARMACEUTICAL COMBINATION OF A THERAPEUTIC OLIGONUCLEOTIDE TARGETING HBV AND A TLR7 AGONIST FOR TREATMENT OF HBV” (priority 2019, published 2023):

How the values were obtained:
HBV [1] = test: Entecavir combination study in HBV-expressing mouse (HDI model); assay type: in vivo; conditions: HDI mice; monotherapy
Description: The RNAi oligonucleotides targeting the S antigen impact both the viral polymerase and HBsAg protein. In this study, the combinational effects of HBV(s)-219P2 as a monotherapy and combinational treatment with entecavir was explored in an HBV-expressing mouse (HDI model) for antiviral activity.
Mice were administered daily oral dosing of 500 ng/kg Entecavir (ETV) for 14 days. A single subcutaneous administration of HBV(s)-219P2 took place. Circulating viral load (HBV DNA) was measured by qPCR (FIG. 25A), plasma HBsAg level was measured by ELISA (FIG. 25B), and liver HBV mRNA and pgRNA levels were measured by qPCR.

HBsAg = system: HBsAg
Description: Preclinical potency was further evaluated in mice following a QW×3 dosing regimen in which HBV-254 was subcutaneously administered at 3 mg/kg (FIG. 23). The administration points are indicated by arrows in the figure. HBsAg levels were monitored in both oligonucleotide treated and untreated control mice for a period spanning 147 days.
Each oligonucleotide, including HBV-254, was evaluated at three concentrations (1, 10, and 100 pM) in HeLa cells using the fluorescence-based reporter assay.

HBV [2] = test: AAV/HBV mouse model: HBsAg levels in serum (CLIA); assay type: in vivo, C57BL/6 mice; set-up: HBsAg levels in serum, Average ± SD: unit not given here; conditions: for HBsAg levels in serum, Average ± SD: AAV/HBV mice, anti-HBV ASO 7.5 mg/kg weekly, TLR7 100 mg/kg weekly (QW)
Source text: (§1) The AAV-HBV mouse model is generated by injecting C57BL/6 mice with recombinant adeno-associated virus harboring a replicable HBV genome (AAV-HBV). The rAAV8-1.3 HBV ayw virus stock was purchased from Beijing FivePlus Molecular Medicine Institute (Beijing, China).
The animals (male, aged 4-5 weeks upon arrival) were purchased from SLAC Laboratory Animal Co. Ltd (Shanghai, China), acclimatized in the animal facility for 5-7 days, and then injected with 1×10^11 vector genome of AAV-HBV (diluted in 200 μL of PBS) through the tail vein. Persistence expression of HBV genome can be established after three weeks, with high levels of HBV viral markers including HBV DNA, HBsAg, and HBeAg in mouse serum. With stable HBV viremia and competent immune system of the C57BL/6 mice, the AAV-HBV mouse model was used to evaluate the in vivo anti-HBV efficacy of the compounds. The in-life part of the AAV-HBV study was conducted through contracted service at Covance Pharmaceutical Research and Development (Shanghai) Co. Ltd. (Covance Shanghai) and the post-life analysis using the serum was performed internally at Roche Innovation Center Shanghai (RICS).
Seven days before compound treatment, blood samples were collected for serum preparation (˜15 μL), and based on HBV DNA, HBsAg levels in serum and body weight, the AAV-HBV infected animals were stratified into the different treatment groups.
Saline (Group 01) and anti-HBV ASO of CMP ID NO: 15_1 at 1.5 or 7.5 mg/kg were dosed sub subcutaneously once a week during Day 0-49 on Days 0, 7, 14, 21, 28, 35, 42 and 49. TLR7 agonist of CMP ID NO: VI 100 mg/kg was administered by oral gavage once every other day during Day 0-55 (QOD) or once weekly during Day 0-49 on Days 0, 7, 14, 21, 28, 35, 42 and 49 (QW). The animals were weekly bled via retro-orbital sinus for sample collection throughout the study. • Oligonucleotide Synthesis
Serum HBsAg levels were determined in the serum of infected AAV-HBV mouse using the HBsAg chemoluminescence immunoassay (CLIA) (Autobio diagnostics Co. Ltd., Zhengzhou, China, Cat. no.CL0310-2), according to the manufacturer's protocol. Briefly, 50μl of serum was transferred to the antibody coated microtiter plate and 50 μl of enzyme conjugate reagent was added. The plate was incubated for 60 min on a shaker at room temperature before all wells were washed six times with washing buffer using an automatic washer. 25 μl of substrate A and then 25 μl of substrate B was added to each well. The plate was incubated for 10 min at RT before luminescence was measured using an Envision luminescence reader (Perkin Elmer). HBsAg is given in the unit IU/ml; where 1 ng HBsAg=1.14 IU.
(§2) To evaluate the combination of the anti-HBV ASO and the TLR7 agonist in an in vivo system, a mouse model of chronic HBV infection was used. In the AAV/HBV mouse model described in the Materials and Method a persistent HBV infection is established resulting in expression of viral markers (HBsAg, HBeAg, HBV DNA) detectable in plasma. The effect on these viral markers upon treatment with the anti-HBV ASO of CMP ID NO: 15_1 (table 2, and FIG. 4) dosed at 1.5 mg/kg or 7.5 mg/kg and the TLR7 agonist of CMP ID NO: VI (table 3) dosed with […] every other day (QOD) or once weekly (QW) in monotherapy or in combination has been evaluated.

HBV [3] = test: AAV/HBV mouse model: HBV-DNA levels in serum (qPCR); assay type: in vivo, C57BL/6 mice
Source text: as §1
The animals (male, aged 4-5 weeks upon arrival) were purchased from SLAC Laboratory Animal Co. Ltd (Shanghai, China), acclimatized in the animal facility for 5-7 days, and then injected with 1×10^11 vector genome of AAV-HBV (diluted in 200 μL of PBS) through the tail vein. Persistence expression of HBV genome can be established after three weeks, with high levels of HBV viral markers including HBV DNA, HBsAg, and HBeAg in mouse serum. […]
Quantification of extracted HBV DNA was performed using a Taqman qPCR machine (ViiA7, life technologies). […] DNA copy numbers were calculated from Ct values based on a HBV plasmid DNA standard curve by the ViiA7 software.
as §2, with “In the AAV/HBV mouse model described in the Materials and Method a persistent HBV infection is established resulting in expression of viral markers (HBsAg, HBeAg, HBV DNA) detectable in plasma.” left out

HBV [4] = test: AAV-HBV mouse model, single dose siRNA vs ASO: serum HBsAg; assay type: in vivo, C57BL/6 mice; conditions: 6.6 mg/kg single subcutaneous injection Day 0
Description: The purpose of this study was to evaluate the in vivo pharmacology and efficacy of certain compounds in AAV-HBV mouse model.
Recombinant adeno-associated virus (AAV) carrying the Hepatitis B Virus (HBV) genome rAAV8-1.3HBV ayw (Lot No: 2019032703) was purchased from Beijing FivePlus Molecular Medicine Institute, and stored at −70° C. before use.
One hundred and fifteen (115) male C57BL/6 mice were obtained. On Pre-dose Day 0, all the animals were subjected to injection through tail vein with 1×10^11 vector genome of AAV-HBV for model induction. Based on baseline serum viral markers and body weight on Pre-dose Day 24, 80 qualified HBV-infected mice were selected.
The 80 selected mice were randomized into 4 groups for compound treatment. Sterile water, DCR-AUD1, DCR-5219 (9 mg/kg), and CMP ID NO: 15_1 (6.6 mg/kg) were subcutaneously injected once at 5 mL/kg on Day 0. The dosing volume was […].
Whole blood was collected to prepare serum (15 μL per mouse) twice weekly during Day 0˜21. On Day 21, the mice were euthanized. […]
Baseline serum levels of HBsAg were determined by ARCHITECT i2000 (Abbott Laboratories, Lake Bluff, IL, USA) and supporting reagents. Baseline serum HBV DNA level was measured by using ABI7500 (Applied Biosystems, Foster City, Calif., USA) and detection kit (Sansure Biotech Inc., Changsha, Hunan, China).

Molecule: C=C1[C@H](CO)[C@@H](O)C[C@@H]1n1cnc2c(=O)[nH]c(N)nc21 [entecavir, Entecavir]
- circulating HBsAg (HBV [1]): No significant decrease
- hepatic viral RNAs (HBV [1]): No significant decrease

Molecule: HBV-254: HBsAg-targeting duplex oligonucleotide, sense SEQ ID NO: 55, antisense SEQ ID NO: 56 (sense GUGGUGGACUUCUCUCAAUAGCAGCCGAAAGGCUGC; antisense UAUUGAGAGAAGUCCACCACGG; chemistry not given here)
- HBsAg levels (HBsAg; HDI-mice, single subcutaneous dose, increasing dosage): systematically reduced HBsAg levels in mice with increasing dosage
- HBsAg levels relative to control (HBsAg; mice, QW×3, 3 mg/kg subcutaneous, monitored 147 days): Diminished HBsAg levels persisted in treated mice throughout the entirety of the study

Molecule: CC[C@H](OC(C)=O)[C@@H]1C[C@@H](O)[C@H](n2c(=O)sc3cnc(N)nc32)O1 [CMP ID NO: VI, [(1S)-1-[(2S,4R,5R)-5-(5-amino-2-oxo-thiazolo[4,5-d]pyrimidin-3-yl)-4-hydroxy-tetrahydrofuran-2-yl]propyl] acetate]
- day of lowest HBsAg (HBV [2]; TLR7 agonist alone (FIG. 10A)): 42 days
- HBV DNA rebound, distance from control group during follow-up (HBV [3]; TLR7 agonist monotherapy, QOD or QW): ≤ 1 log

Molecule: 5′-GN2-C6ocoaoGs^mCsGstsasasasgsasgsasGsG-3′ [CMP ID NO: 15_1]
- time until which decrease in HBsAg was maintained before rebound (HBV [4]): about 10 days
- HBsAg level over time (HBV [4]; 21 days): rapid decrease in HBsAg level
- HBsAg levels in serum, Average ± SD (HBV [2]; D 0): 4.30 ± 0.30
- HBsAg levels in serum, Average ± SD (HBV [2]; D 7): 1.71 ± 0.24
- HBsAg levels in serum, Average ± SD (HBV [2]; D 14): 1.83 ± 0.21
- HBsAg levels in serum, Average ± SD (HBV [2]; D 21): 1.43 ± 0.17
- HBsAg levels in serum, Average ± SD (HBV [2]; D 28): 1.30 ± 0.19
- HBsAg levels in serum, Average ± SD (HBV [2]; D 35): 1.36 ± 0.26
- HBsAg levels in serum, Average ± SD (HBV [2]; D 42): 1.30 ± 0.16
- HBsAg levels in serum, Average ± SD (HBV [2]; D 49): 1.56 ± 0.16
- HBsAg levels in serum, Average ± SD (HBV [2]; D 56): 1.32 ± 0.24
- HBsAg levels in serum, Average ± SD (HBV [2]; D 63): 1.33 ± 0.47
- HBsAg levels in serum, Average ± SD (HBV [2]; D 70): 2.18 ± 0.91
- HBsAg levels in serum, Average ± SD (HBV [2]; D 77): 2.70 ± 0.85
- HBsAg levels in serum, Average ± SD (HBV [2]; D 84): 3.17 ± 0.60
- HBsAg levels in serum, Average ± SD (HBV [2]; D 91): 3.82 ± 0.38
- HBsAg levels in serum, Average ± SD (HBV [2]; D 98): 3.64 ± 0.81
- HBsAg levels in serum, Average ± SD (HBV [2]; D 105): 3.61 ± 0.97
- HBsAg levels in serum, Average ± SD (HBV [2]; D 111): 3.40 ± 1.49
- suppression of HBsAg below the detection limit (HBV [2]; anti-HBV ASO 1.5 mg/kg monotherapy): not capable of suppressing HBsAg to a level below the detection limit
- reduction in HBV-DNA (HBV [3]; monotherapy at both 1.5 mg/kg and 7.5 mg/kg): rapid reduction in HBV-DNA to below the lower level of quantification
